Death data for one compound are collected here from US20050245577A1, “Drug for kidney failure containing oxaluric acid derivative” (priority 2002, published 2005).

The subject of this data set is SD-strain rats. The experiment in a line: Single dose toxicity test. The class given is in vivo. As to conditions: intravenous single dose 75 to 600 mg/kg, even at 600 mg/kg, 5 males and 5 females. The method, then:
5-Methyloxaluric acid was intravenously administered to SD-strain rats (6 weeks age, 5 males and 5 females) at the dose of 75 to 600 mg/kg.

`CNC(=O)NC(=O)C(=O)O` [5-Methyloxaluric acid, 5-methyloxaluric acid]: the death entry is on record as “no death”.
